In patent US6737383B1, “Herbicidal oxadiazolidines” (priority 1999, dated 2004):

Key:
[1] = tested on: surinam grass; assay: Test B pre/postemergence surinam grass; type: in vivo, Brachiaria decumbens
Method in brief: (§1)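 Test chemicals in a non-phytotoxic solvent mixture with surfactant were sprayed preemergence onto planted seeds and postemergence onto plants 2 to 18 cm tall (1- to 4-leaf stage). After twelve to sixteen days in a greenhouse, injury was visually rated against untreated controls from 0 (no effect) to 10 (complete control).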

[2] = tested on: morningglory; assay: Test B pre/postemergence morningglory; type: in vivo, Ipomoea hederacea; settings: for Plant response rating, Morningglory: scale of 0 to 10 where 0 is no effect and 10 is complete control
Method in brief: as §1

[3] = tested on: velvetleaf; assay: Test B pre/postemergence velvetleaf; type: in vivo, Abutilon theophrasti; settings: for Plant response rating, Velvetleaf: scale of 0 to 10 where 0 is no effect and 10 is complete control
Method in brief: as §1

[4] = tested on: corn; assay: Test B pre/postemergence corn; type: in vivo, Zea mays
Method in brief: as §1

[5] = tested on: duck salad; assay: Test B flood test duck salad; type: in vivo, Heteranthera limosa
Method in brief: (§2)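 Read-out is a visual response score from 0 (no effect) to 10 (complete control), assigned by comparison with untreated controls. Treatment was applied at the 2-leaf stage, and plants stayed in the greenhouse for twelve to sixteen days before scoring.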

[6] = tested on: wild oat; assay: Test B pre/postemergence wild oat; type: in vivo, Avena fatua; settings: for Plant response rating, Wild oats: scale of 0 to 10 where 0 is no effect and 10 is complete control
Method in brief: as §1

[7] = tested on: rape; assay: Test B pre/postemergence rape; type: in vivo, Brassica napus; settings: for Plant response rating, Rape: scale of 0 to 10 where 0 is no effect and 10 is complete control
Method in brief: as §1

[8] = tested on: sugar beet; assay: Test B pre/postemergence sugar beet; type: in vivo, Beta vulgaris; settings: for Plant response rating, Sugarbeets: scale of 0 to 10 where 0 is no effect and 10 is complete control
Method in brief: as §1

[9] = tested on: rice; assay: Test B flood test rice; type: in vivo, Oryza sativa
Method in brief: as §2

[10] = tested on: blackgrass; assay: Test B pre/postemergence blackgrass; type: in vivo, Alopecurus myosuroides
Method in brief: as §1

[11] = tested on: wheat; assay: Test B pre/postemergence wheat; type: in vivo, Triticum aestivum; settings: for Plant response rating, Wheat: scale of 0 to 10 where 0 is no effect and 10 is complete control
Method in brief: as §1

[12] = tested on: pigweed; assay: Test B pre/postemergence pigweed; type: in vivo, Amaranthus retroflexus; settings: for Plant response rating, Redroot pigweed: scale of 0 to 10 where 0 is no effect and 10 is complete control
Method in brief: as §1

[13] = tested on: smallflower flatsedge; assay: Test B flood test smallflower flatsedge; type: in vivo, Cyperus difformis
Method in brief: as §2

[14] = tested on: cocklebur; assay: Test B pre/postemergence cocklebur; type: in vivo, Xanthium strumarium
Method in brief: as §1

[15] = tested on: soybean; assay: Test B pre/postemergence soybean; type: in vivo, Glycine max; settings: for Plant response rating, Soybean: scale of 0 to 10 where 0 is no effect and 10 is complete control
Method in brief: as §1

[16] = tested on: giant foxtail; assay: Test B pre/postemergence giant foxtail; type: in vivo, Setaria faberii
Method in brief: as §1

[17] = Postemergence, Rate 500 g/ha, scale of 0 to 10 where 0 is no effect and 10 is complete control
[18] = Preemergence, Rate 62 g/ha, scale of 0 to 10 where 0 is no effect and 10 is complete control
[19] = Preemergence, Rate 125 g/ha, scale of 0 to 10 where 0 is no effect and 10 is complete control
[20] = Preemergence, Rate 250 g/ha, scale 0 to 10, 0 is no effect, 10 is complete control
[21] = Preemergence, Rate 500 g/ha, scale 0 to 10, 0 is no effect, 10 is complete control
[22] = Rate 62 g/ha, Postemergence, scale 0 to 10 (0 no effect, 10 complete control)
[23] = Rate 125 g/ha, Postemergence, scale 0 to 10, 0 is no effect, 10 is complete control
[24] = Postemergence, Rate 250 g/ha, scale 0 to 10
[25] = Rate 62 g/ha, flood test species, Pre-emergence, visual evaluation after twelve to sixteen days
[26] = Rate 125 g/ha, under heading Pre-emergence, flood test species, visual evaluation after twelve to sixteen days
[27] = Rate 250 g/ha, Pre-emergence (flood test species), scale 0 to 10, 0 is no effect, 10 is complete control
[28] = Rate 500 g/ha, Pre-emergence, flood test species, scale 0 to 10 (0 no effect, 10 complete control)

## C=CC(CC)n1c(=O)on(C(=O)N(c2ccccc2)C(C)C)c1=O (stereo not drawn) [Compound 455]
[1]; Postemergence, Rate 250 g/ha, scale 0 to 10, 0 no effect, 10 complete control
  B. signalgrass plant response rating: 1
[1]; [17]
  B. signalgrass plant response rating: 5
[1]; [18]
  Plant response rating, B. signalgrass: 0
[1]; [19]
  Plant response rating, B. signalgrass: 3
[1]; [20]
  B. signalgrass plant response rating: 9
[1]; [21]
  B. signalgrass plant response rating: 9
[1]; [22]
  B. signalgrass plant response rating: 0
[1]; [23]
  B. signalgrass plant response rating: 0
[2]; [24]
  Morningglory plant response rating: 8
[2]; Preemergence, Rate 62 g/ha
  Plant response rating, Morningglory: 0
[2]; Preemergence, Rate 125 g/ha
  Plant response rating, Morningglory: 0
[2]; [20]
  Morningglory plant response rating: 0
[2]; [21]
  Morningglory plant response rating: 4
[2]; [22]
  Morningglory plant response rating: 3
[2]; [23]
  Morningglory plant response rating: 8
[3]; [24]
  Velvetleaf plant response rating: 3
[3]; Preemergence, Rate 62 g/ha
  Plant response rating, Velvetleaf: 2
[3]; Preemergence, Rate 125 g/ha
  Plant response rating, Velvetleaf: 4
[3]; [20]
  Velvetleaf plant response rating: 5
[3]; [21]
  Velvetleaf plant response rating: 6
[3]; [22]
  Velvetleaf plant response rating: 0
[3]; [23]
  Velvetleaf plant response rating: 0
[4]; [24]
  Corn plant response rating: 0
[4]; [17]
  Corn plant response rating: 0
[4]; [18]
  Plant response rating, Corn: 0
[4]; [19]
  Plant response rating, Corn: 2
[4]; [20]
  Corn plant response rating: 4
[4]; [21]
  Corn plant response rating: 7
[4]; [22]
  Corn plant response rating: 0
[4]; [23]
  Corn plant response rating: 0
[5]; [25]
  Plant response rating, Ducksalad (0 to 10 scale, 0 is no effect, 10 is complete control): 0
[5]; [26]
  Ducksalad plant response rating (0 to 10 scale, 0 is no effect, 10 is complete control): 0
[5]; [27]
  Ducksalad plant response rating: 0
[5]; [28]
  Ducksalad plant response rating: 0
[6]; [24]
  Wild oats plant response rating: 0
[6]; Preemergence, Rate 62 g/ha
  Plant response rating, Wild oats: 0
[6]; Preemergence, Rate 125 g/ha
  Plant response rating, Wild oats: 3
[6]; [20]
  Wild oats plant response rating: 9
[6]; [21]
  Wild oats plant response rating: 10
[6]; [22]
  Wild oats plant response rating: 0
[6]; [23]
  Wild oats plant response rating: 0
[7]; [24]
  Rape plant response rating: 0
[7]; Preemergence, Rate 62 g/ha
  Plant response rating, Rape: 0
[7]; Preemergence, Rate 125 g/ha
  Plant response rating, Rape: 3
[7]; [20]
  Rape plant response rating: 8
[7]; [21]
  Rape plant response rating: 9
[7]; [22]
  Rape plant response rating: 0
[7]; [23]
  Rape plant response rating: 0
[8]; [24]
  Sugarbeets plant response rating: 0
[8]; Preemergence, Rate 62 g/ha
  Plant response rating, Sugarbeets: 0
[8]; Preemergence, Rate 125 g/ha
  Plant response rating, Sugarbeets: 1
[8]; [20]
  Sugarbeets plant response rating: 3
[8]; [21]
  Sugarbeets plant response rating: 6
[8]; [22]
  Sugarbeets plant response rating: 0
[8]; [23]
  Sugarbeets plant response rating: 0
[9]; [25]
  Plant response rating, Rice (0 to 10 scale, 0 is no effect, 10 is complete control): 0
[9]; [26]
  Rice plant response rating (0 to 10 scale, 0 is no effect, 10 is complete control): 0
[9]; [27]
  Rice plant response rating: 0
[9]; [28]
  Rice plant response rating: 0
[10]; [24]
  Blackgrass plant response rating: 9
[10]; [17]
  Blackgrass plant response rating: 9
[10]; [18]
  Plant response rating, Blackgrass: 3
[10]; [19]
  Plant response rating, Blackgrass: 4
[10]; [20]
  Blackgrass plant response rating: 6
[10]; [21]
  Blackgrass plant response rating: 7
[10]; [22]
  Blackgrass plant response rating: 6
[10]; [23]
  Blackgrass plant response rating: 8
[11]; [24]
  Wheat plant response rating: 0
[11]; Preemergence, Rate 62 g/ha
  Plant response rating, Wheat: 0
[11]; Preemergence, Rate 125 g/ha
  Plant response rating, Wheat: 0
[11]; [20]
  Wheat plant response rating: 0
[11]; [21]
  Wheat plant response rating: 2
[11]; [22]
  Wheat plant response rating: 0
[11]; [23]
  Wheat plant response rating: 0
[12]; [24]
  Redroot pigweed plant response rating: 5
[12]; Preemergence, Rate 62 g/ha
  Plant response rating, Redroot pigweed: 7
[12]; Preemergence, Rate 125 g/ha
  Plant response rating, Redroot pigweed: 10
[12]; [20]
  Redroot pigweed plant response rating: 10
[12]; [21]
  Redroot pigweed plant response rating: 10
[12]; [22]
  Redroot pigweed plant response rating: 2
[12]; [23]
  Redroot pigweed plant response rating: 2
[13]; [25]
  Plant response rating, S. Flatsedge (0 to 10 scale, 0 is no effect, 10 is complete control): 0
[13]; [26]
  S. Flatsedge plant response rating (0 to 10 scale, 0 is no effect, 10 is complete control): 0
[13]; [27]
  S. Flatsedge plant response rating: 0
[13]; [28]
  S. Flatsedge plant response rating: 0
[14]; [24]
  Cocklebur plant response rating: 0
[14]; [17]
  Cocklebur plant response rating: 0
[14]; [18]
  Plant response rating, Cocklebur: 0
[14]; [19]
  Plant response rating, Cocklebur: 0
[14]; [20]
  Cocklebur plant response rating: 0
[14]; [21]
  Cocklebur plant response rating: 0
[14]; [22]
  Cocklebur plant response rating: 0
[14]; [23]
  Cocklebur plant response rating: 0
[15]; [24]
  Soybean plant response rating: 4
[15]; Preemergence, Rate 62 g/ha
  Plant response rating, Soybean: 0
[15]; Preemergence, Rate 125 g/ha
  Plant response rating, Soybean: 0
[15]; [20]
  Soybean plant response rating: 0
[15]; [21]
  Soybean plant response rating: 2
[15]; [22]
  Soybean plant response rating: 1
[15]; [23]
  Soybean plant response rating: 2
[16]; [24]
  Giant foxtail plant response rating: 7
[16]; [17]
  Giant foxtail plant response rating: 9
[16]; [18]
  Plant response rating, Giant foxtail: 10
[16]; [19]
  Plant response rating, Giant foxtail: 10
[16]; [20]
  Giant foxtail plant response rating: 10
[16]; [21]
  Giant foxtail plant response rating: 10
[16]; [22]
  Giant foxtail plant response rating: 7
[16]; [23]
  Giant foxtail plant response rating: 7
